This note sets out measurements from patent EP0816362A1, “THIAZOLE DERIVATIVES” (TAISHO PHARMACEUTICAL CO. LTD, priority 1995, dated 1996).

One test concerns the target T1, human D4.2 receptor (Homo sapiens, UniProt P21917, DEL265-296).
T1 sequence (P21917 with tags, fused parts or gaps DEL265-296): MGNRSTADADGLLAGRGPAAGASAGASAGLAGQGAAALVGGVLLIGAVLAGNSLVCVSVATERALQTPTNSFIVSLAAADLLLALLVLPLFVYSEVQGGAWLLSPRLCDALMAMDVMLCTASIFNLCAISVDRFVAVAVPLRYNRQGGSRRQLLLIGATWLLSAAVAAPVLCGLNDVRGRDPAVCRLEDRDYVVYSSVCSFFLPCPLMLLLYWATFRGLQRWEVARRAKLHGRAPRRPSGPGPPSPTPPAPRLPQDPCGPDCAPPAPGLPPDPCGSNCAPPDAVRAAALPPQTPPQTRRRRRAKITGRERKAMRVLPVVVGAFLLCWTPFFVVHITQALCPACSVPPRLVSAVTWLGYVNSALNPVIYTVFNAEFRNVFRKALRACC
As to the kind of experiment: Dopamine D4 receptor binding experiment ([3H]-spiperone). The conditions noted are these: CHO cell membranes expressing human D4.2 receptor, [3H]-spiperone (0.5 nM), 27°C, 2 hours. The procedure:
As a receptor preparation, Chinese hamster ovary (CHO) cell membranes where human D4.2 receptor was expressed were used.
As [^3H]-labeled ligand, [^3H]-spiperone was used.
Human D4.2 receptor binding test: CHO cell membranes where human D4.2 receptor was expressed, [^3H]-spiperone (0.5 nM) and a test drug were reacted at 27°C for 2 hours in 50 mM Tris-HCl buffer, pH 7.4 containing 5 mM EDTA, 1.5 mM calcium chloride, 5 mM potassium chloride and 120 mM sodium chloride.
After the reaction, the sample was filtered under suction through a glass filter (GF/B), and the radioactivity of the filter paper was determined in a liquid scintillation spectrometer.
The binding of [^3H]-spiperone in the presence of 10 µM haloperidol was assumed to be non-specific binding, and the difference between the total binding and the non-specific binding was assumed to be specific binding.
What is called IC50 is the point on the concentration scale where inhibition reaches its midpoint. A lower IC50 goes with greater potency. `Cc1nc(-c2ccc(F)cc2)c(CCN2CCC(C(=O)c3ccc(Br)cc3)CC2)s1` [Compound K-21] gave an IC50 of 11.5 nM.
Consider `Cc1nc(-c2ccc(F)cc2)c(CCN2CCC(C(=O)c3ccccc3)CC2)s1` [Compound K-24], for which the IC50 is 5.99 nM.
Compound `Nc1nc(-c2cccc(F)c2)c(C2CCN(CCCC(=O)c3ccc(F)cc3)C2)s1` (racemic) [Compound D-09] registered an IC50 of 32 nM. Against the preceding compound, the IC50 is about 5.3-fold higher.
The compound `Nc1nc(-c2ccc(F)cc2)c(CCN2CCC(C(=O)c3ccc(Cl)cc3)CC2)s1` [Compound K-08] registered an IC50 of 29.2 nM.
`Nc1nc(-c2ccc(F)cc2)c(CCN2CCC(C(=O)c3ccccc3)CC2)s1` [Compound K-09]: the IC50 was determined as 42.3 nM.
Regarding `Nc1nc(-c2ccc(F)cc2)c(C2CCN(CCCc3nsc4cc(F)ccc34)C2)s1` (stereo not shown) [Compound E-11, 2-amino-4-(4-fluorophenyl)-5-[1-[3-(6-fluoro-1,2-benzisothiazol-3-yl)propyl]pyrrolidin-3-yl]thiazole], the IC50 was determined as 7.22 nM. Compared with the last compound, the IC50 is about 5.9-fold lower.
Consider `Nc1nc(-c2ccc(F)cc2)c(CCN2CCC(C(=O)c3ccc(F)cc3)CC2)s1` [Compound K-01, 2-amino-4-(4-fluorophenyl)-5-[2-[4-(4-fluorobenzoyl)piperidin-1-yl]ethyl]thiazole], for which the IC50 came out at 7.92 nM. The IC50 values of the last two compounds are within 1.5-fold of each other.
The compound `Nc1nc(-c2ccc(F)cc2)c(C2CCN(CCCC(=O)c3ccc(F)cc3)C2)s1` (single isomer, unassigned; (+)) [Compound F-05, (+)-2-amino-4-(4-fluorophenyl)-5-[1-[4-(4-fluorophenyl)-4-oxobutyl]pyrrolidin-3-yl]thiazole] gave an IC50 of 6.58 nM.
Take `COc1ccc(-c2nc(C)sc2CCN2CCC(C(=O)c3ccc(F)cc3)CC2)cc1` [Compound K-28]: the IC50 came out at 1.63 nM. Against the preceding compound, the IC50 is about 4-fold lower.
`Nc1nc(-c2ccc(F)cc2)c(C2CCN(CCCCc3noc4cc(F)ccc34)C2)s1` (stereo not shown) [Compound E-06] registered an IC50 of 97.7 nM.
Turning to `Nc1nc(-c2ccc(F)cc2)c(C2CCN(CCCN3C(=O)Cc4ccccc43)C2)s1` (stereo not shown) [Compound H-07], the IC50 is 89 nM.
In turn, `Cc1nc(-c2ccccc2)c(CCN2CCC(C(=O)c3ccc(F)cc3)CC2)s1` [Compound K-30] had an IC50 of 2.15 nM.
As for `Cc1nc(-c2ccc(F)cc2)c(CCN2CCC(C(=O)c3ccc(F)cc3)CC2)s1` [Compound K-19], the IC50 was 8.7 nM.
For `Cc1ccc(C(=O)C2CCN(CCc3sc(N)nc3-c3ccc(F)cc3)CC2)cc1` [Compound K-16], the IC50 was found to be 9.55 nM.
`C=C(c1ccc(F)cc1)C1CCN(CCc2sc(N)nc2-c2ccc(F)cc2)CC1` [Compound K-18] returned an IC50 of 20.1 nM.
Consider `Nc1nc(-c2ccccc2)c(CCN2CCC(C(=O)c3ccc(F)cc3)CC2)s1` [Compound K-10], for which the IC50 was 8.7 nM.
`Nc1nc(-c2ccc(F)cc2)c(C2CCN(CCC=Cc3ccc(F)cc3)C2)s1` (stereo not shown) [Compound C-02] came in with an IC50 of 81.1 nM.
Turning to `Nc1nc(-c2ccc(F)cc2)c(C2CCN(CCCn3c(=O)ccc4cc(F)ccc43)C2)s1` (stereo not shown) [Compound H-03], the half-inhibitory concentration (IC50) was determined as 61.4 nM.
On the same count and under the same terms, under `Nc1nc(-c2ccc(F)cc2)c(C2CCN(CCCC(=O)c3ccc(F)cc3)C2)s1` [Compound D-02, 2-amino-4-(4-fluorophenyl)-5-[1-[4-(4-fluorophenyl)-4-oxobutyl]pyrrolidin-3-yl]thiazole] stands 6.58 nM.

The same test, now with this note: inhibition of [3H]-spiperone binding, human D4.2 receptor.
Turning to `Cc1nc(-c2ccc(F)cc2)c(CCN2CCC(=Cc3cccc(C(F)(F)F)c3)CC2)s1` [Compound L-29], the IC50 was found to be 10.5 nM.
Turning to `Fc1ccc(-c2ncsc2CCN2CCC(=Cc3ccccc3)CC2)cc1` [Compound L-33], the IC50 was determined as 3.43 nM.
`Cc1ccc(-c2nc(C)sc2CCN2CCC(=Cc3ccc(F)cc3)CC2)cc1` [Compound L-21] registered an IC50 of 2.6 nM.
The same measure, in the same setting: under `COc1ccc(C=C2CCN(CCc3sc(C)nc3-c3ccc(F)cc3)CC2)cc1` [Compound L-26] stands 16.7 nM; under `Nc1nc(-c2ccc(Br)cc2)c(CCN2CCC(=Cc3ccc(F)cc3)CC2)s1` [Compound L-04], 13.9 nM; under `Cc1nc(-c2ccccc2)c(CCN2CCC(=Cc3ccc(F)cc3)CC2)s1` [Compound L-23], 3.13 nM.
The compound `COc1ccc(-c2nc(N)sc2CCN2CCC(=Cc3ccc(F)cc3)CC2)cc1` [Compound L-05] yielded an IC50 of 18.3 nM.
`Nc1nc(-c2ccc(F)cc2)c(CCCN2CCC(=Cc3ccc(F)cc3)CC2)s1` [Compound L-02] gave an IC50 of 38.5 nM.
The compound `COc1ccc(-c2nc(C)sc2CCN2CCC(=Cc3ccc(F)cc3)CC2)cc1Br` [Compound L-22] yielded an IC50 of 13.9 nM.
In turn, `O=C(c1ccc(F)cc1)C1CCN(CCc2sc(-c3ccccc3)nc2-c2ccc(F)cc2)CC1` [Compound K-35] came in with an IC50 of 32 nM.
For `Nc1nc(-c2ccccc2)c(CCN2CCC(=Cc3ccc(F)cc3)CC2)s1` [Compound L-07], the IC50 came to 22.1 nM.
`Cc1nc(-c2ccc(F)cc2)c(CCN2CCC(=Cc3cccc(F)c3)CC2)s1` [Compound L-27] displayed an IC50 of 1.96 nM. Compared with the last compound, the IC50 is about 11-fold lower.
In turn, `O=C(c1ccccc1)C1CCN(CCc2scnc2-c2ccc(F)cc2)CC1` [Compound K-34] gave an IC50 of 20.1 nM. This IC50 lies about 10-fold higher than the previous one.
Compound `Cc1nc(-c2ccc(F)cc2)c(CCN2CCC(=Cc3ccc(Cl)cc3)CC2)s1` [Compound L-24] came in with a concentration for half-maximal inhibition (IC50) of 11.5 nM.
`Cc1nc(-c2ccc(F)cc2)c(CCN2CCC(=Cc3ccccc3)CC2)s1` [Compound L-30] returned an IC50 of 2.6 nM.
On to `Cc1nc(-c2ccc(F)cc2)c(CCN2CCC(=Cc3ccc(Br)cc3)CC2)s1` [Compound L-25], for which the IC50 is 29.2 nM.
On to `Nc1nc(-c2ccc(F)cc2)c(CCN2CCC(=Cc3cccc(F)c3)CC2)s1` [Compound L-11], for which the IC50 came out at 2.85 nM.
In the case of `Nc1nc(-c2ccc(Cl)cc2)c(CCN2CCC(=Cc3ccc(F)cc3)CC2)s1` [Compound L-03], the IC50 was found to be 22.1 nM.
As to `CNc1nc(-c2ccc(F)cc2)c(CCN2CCC(=Cc3ccc(F)cc3)CC2)s1` [Compound L-35], the IC50 was 2.15 nM.
`CNc1nc(-c2ccc(F)cc2)c(CCN2CCC(C(=O)c3ccc(F)cc3)CC2)s1` [Compound K-36] had an IC50 of 3.43 nM. Compared with the last compound, the IC50 is about 1.6-fold higher.
On to `COc1ccc(-c2nc(C)sc2CCN2CCC(C(=O)c3ccc(F)cc3)CC2)cc1Br` [Compound K-31], for which the IC50 came to 0.705 nM.
Turning to `C=C(c1ccc(F)cc1)C1CCN(CCc2sc(C)nc2-c2ccc(F)cc2)CC1` [Compound K-32], the IC50 is 12.6 nM.
For `Nc1nc(-c2ccc(F)cc2)c(CCN2CCC(=Cc3ccccc3F)CC2)s1` [Compound L-12], the IC50 came out at 2.36 nM.
As for `Cc1nc(-c2ccc(Br)cc2)c(CCN2CCC(=Cc3ccc(F)cc3)CC2)s1` [Compound L-19], the IC50 was 16.7 nM.
In turn, `COc1ccc(-c2nc(C)sc2CCN2CCC(=Cc3ccc(F)cc3)CC2)cc1` [Compound L-20] gave an IC50 of 7.22 nM.
On to `Nc1nc(-c2ccc(F)cc2)c(CCN2CCC(=Cc3ccc(F)cc3)CC2)s1` [Compound L-01], for which the IC50 stood at 2.85 nM.
Compound `Nc1nc(-c2ccc(F)cc2)c(CCN2CCC(=Cc3cccc(C(F)(F)F)c3)CC2)s1` [Compound L-13] yielded an IC50 of 24.2 nM. This IC50 is about 8.5-fold higher than that of the compound before.
For the compound `Cc1nc(-c2ccc(F)cc2)c(CCN2CCC(=Cc3ccc(F)cc3)CC2)s1` [Compound L-17], the IC50 is 12.6 nM.
As for `CC(=C1CCN(CCc2sc(N)nc2-c2ccc(F)cc2)CC1)c1ccc(F)cc1` [Compound L-15], the IC50 turned out to be 7.92 nM.
Turning to `Nc1nc(-c2ccc(F)cc2)c(CCN2CCC(CC(=O)c3ccc(F)cc3)C2)s1` (stereo not shown) [Compound K-37], the IC50 was 10.5 nM.
